# Test results taken from patent US20250248999A1, “BAVDEGALUTAMIDE AND COMBINATIONS THEREOF FOR USE IN TREATING PROSTATE CANCER” (Arvinas Operations, Inc., priority 2022, published 2025).
# Where two headings read alike, the source gives them in different places.
# Columns and labels:
# clinical = conditions: human, in vivo
# [1] = tested on: human VCaP (Vertebral-Cancer of the Prostate) tumor xenografts; assay: 3-stage efficacy study in castrated mice bearing VCaP tumor xenografts; conditions: for change in body weight: Stage I treatment period, FIG. 16; for Tumor volume, Day 0 / Tumor volume, Day 43 (Stage I) / Tumor volume, Day 92 (Stage III): mean ± SEM; for Tumor volume, Day 92 (Stage III): abiraterone 100 mg/kg or Compound (I-g) 10 mg/kg once daily for 19 days
# [2] = tested on: patient-derived xenograft (PDX) model TM00298; conditions: enzalutamide treatment; cited from earlier work
# [3] = Phase I dose escalation safety
# Source text: A traditional 3+3 dose escalation design was implemented. […] Dose increases were dependent upon toxicities.
# [4] = tested on: patient-derived xenograft (PDX) model TM00298; assay: Patient-derived xenograft (PDX) model TM00298; type: in vivo, NSG (NOD scid IL2Ry) mice; conditions: Compound (I-g) 10 mg/kg/day PO, enzalutamide 20 mg/kg/day PO
# Method: The TM00298 PDX was grown in intact (non-castrate) male NSG (NOD scid IL2Ry) mice.
# mCRPC tumor = assay: RECIST response by CT scan in mCRPC patient; type: in vivo, human; conditions: Patient 20, 140 mg/day, after 4 cycles
# [5] = not given; remark: listed apart in the source
# CYP3A4 = assay: In vitro CYP3A4 induction; conditions: in vitro data
# [6] = 28-day toxicology study in rats
# [7] = Stage I, Compound (I-g) 3 mg/kg, abiraterone 100 mg/kg or combination, oral gavage once daily
# [8] = Stage III, abiraterone-resistant tumors
# [9] = Stage III, abiraterone-resistant tumors, abiraterone 100 mg/kg or Compound (I-g) 10 mg/kg once daily, n = 4
compound,measurement,setting,value
"C[C@]12CC[C@H](O)CC1=CC[C@@H]1[C@@H]2CC[C@]2(C)C(c3cccnc3)=CC[C@@H]12 [Abiraterone, (3S,8R,9S,10R,13S,14S)-10,13-dimethyl-17-(pyridin-3-yl)-2,3,4,7,8,9,10,11,12,13,14,15-dodecahydro-1H-cyclopenta[a]phenanthren-3-ol, reference compound]",reduction in the average abiraterone AUC exposure,"1000 mg abiraterone given with 420 mg Compound (I-g), preliminary",22%
same,drug-drug interaction (DDI),abiraterone with Compound (I-g) vs abiraterone alone,no significant DDI was observed
same,AUC,"clinical; Abiraterone AUC0-tau, mean",417 ng·h/mL
same,Cmax,"clinical; Abiraterone Cmax, mean",117 ng/mL
same,change in body weight,[1],no significant change in body weight was observed
same,TGI (%) vs vehicle (Stage I),"[1]; Stage I, Compound (I-g) 3 mg/kg, abiraterone 100 mg/kg or combination, oral gavage once daily, 43 days",60%
same,"Tumor volume, Day 0",[1]; [7],135 ± 10 mm^3
same,"Tumor volume, Day 43 (Stage I)",[1]; [7],262 ± 39 mm^3
same,"Tumor volume, Day 92 (Stage III)",[1]; [8],467 ± 85 mm^3
same,"Tumor volume, Day 0",[1]; [9],365 ± 44 mm^3
"CNC(=O)c1ccc(N2C(=S)N(c3ccc(C#N)c(C(F)(F)F)c3)C(=O)C2(C)C)cc1F [enzalutamide, reference compound]","PSA reductions, published report (Jin 2017)",[2],modest PSA reductions were observed
same,"TGI, published report (Jin 2017)",[2],no TGI
N#Cc1ccc(O[C@H]2CC[C@H](NC(=O)c3ccc(N4CCC(CN5CCN(c6cc7c(cc6F)C(=O)N(C6CCC(=O)NC6=O)C7=O)CC5)CC4)nn3)CC2)cc1Cl (some centres unmarked) [Compound (I-g)],"adverse events at grades 2, 3, or 4",[3]; 35 mg/day cohort (n=3),"no adverse events at grades 2, 3, or 4 were observed"
same,dose limiting toxicity,[3]; 35 mg/day cohort (n=3),no dose limiting toxicity was observed
same,dose limiting toxicity,[3]; 70 mg/day cohort (n=4),no dose limiting toxicity was observed
same,grade 2 adverse events,[3]; 70 mg/day cohort (n=4),"One patient experienced grade 2 adverse events (diarrhea, fatigue, vomiting)"
same,grade 3 adverse events,[3]; 70 mg/day cohort (n=4),One patient experienced a grade 3 adverse event (anemia) that was unrelated to the administration of compound (I-g)
same,dose limiting toxicity,[3]; 140 mg/day cohort (n=8),no dose limiting toxicity was observed
same,patients with grade 2 adverse events,[3]; 140 mg/day cohort (n=8),50 % of the patients
same,dose-limiting toxicity,[3]; 280 mg/day cohort (n=7),one patient experienced dose-limiting toxicity and renal failure
same,patients with grade 2 or less adverse events,[3]; 280 mg/day cohort (n=7),5 patients
same,reduction of plasma PSA,[4]; vs vehicle,93%
same,TGI,"[4]; after 20 days, intact male NSG mice",100%
same,tumor response on CT scan,mCRPC tumor,RECIST response
same,gastrointestinal alterations,"[5]; dogs, 3, 10, 30 mg/kg oral once daily, 28 days",Gastrointestinal alterations were observed at all dose levels (including vehicle alone)
same,prostate weights,[5]; male dogs,decreased prostate weights
same,AUC,clinical,9120 ng·h/mL
same,AUC(0-t),clinical,3030 ng·h/mL
same,Cmax,clinical,451 ng/mL
same,Tmax,clinical,6 h
same,CYP3A4 induction,CYP3A4,induces CYP3A4
same,body weight and food consumption,[6]; 80 mg/kg female rat cohort,lost body weight and consumed less food
same,"reversibility of findings (liver hypertrophy, femur physis thickening)","[6]; male high-dose rats, 14-day recovery",fully reversible
same,prostate weights,[6]; male rats,decreased prostate weights
same,tolerability,"[6]; rats, oral once daily 28 days, males 20, 60, 120 mg/kg, females 20, 40, 120 mg/kg","well tolerated at all doses, with the exception of the 80 mg/kg female cohort"
same,change in body weight,[1],no significant change in body weight was observed
same,"Tumor volume, Day 0",[1]; [7],147 ± 8{grave over ( )} mm^3
same,"Tumor volume, Day 43 (Stage I)",[1]; [7],231 ± 26 mm^3
same,TGI (%) vs Abiraterone (Stage III),"[1]; Stage III, abiraterone-resistant tumors, Compound (I-g) 10 mg/kg once daily for 19 days",growth inhibition was observed
same,"Tumor volume, Day 92 (Stage III)",[1]; [8],305 ± 23 mm^3
same,"Tumor volume, Day 0",[1]; [9],330 ± 15 mm^3
